Oligonucleotides are written 5' to 3', each unit as a sugar letter and its base; * is a phosphorothioate linkage, no mark a phosphodiester; rarer units and linkages stand in square brackets, end groups in braces. Plain capitals give the bases only. e = 2'-O-(2-methoxyethyl) (MOE); [5mC] = 5-methylcytosine; d = 2'-deoxy (DNA)
How the values were obtained:
[1] = test system: human glucose-6-phosphatase translocase mRNA; assay: Antisense inhibition of human glucose-6-phosphatase translocase mRNA in T-24 cells, real-time PCR (Table 4); assay type: cell-based; conditions: 100 nM oligonucleotide, LIPOFECTIN, mRNA by real-time PCR
Method: The transitional cell bladder carcinoma cell line T-24 was obtained from the American Type Culture Collection (ATCC) (Manassas, Va.). T-24 cells were routinely cultured in complete McCoy's 5A basal media (Invitrogen Life Technologies, Carlsbad, Calif.) supplemented with 10% fetal bovine serum (Invitrogen Life Technologies, Carlsbad, Calif.). Cells were routinely passaged by trypsinization and dilution when they reached approximately 90% confluence. Cells were seeded into 96-well plates (Falcon-Primaria #3872) at a density of approximately 4000-6000 cells/well for use in oligomeric compound transfection experiments. When cells reached 65-75% confluency, they were treated with oligonucleotide. […] This transfection mixture was incubated at room temperature for approximately 0.5 hours. For cells grown in 96-well plates, wells were washed once with 100 μL OPTI-MEMTM-1 and then treated with 130 μL of the transfection mixture. Cells grown in 24-well plates or other standard tissue culture plates are treated similarly, using appropriate volumes of medium and oligonucleotide. Cells are treated and data are obtained in duplicate or triplicate. After approximately 4-7 hours of treatment at 37° C., the medium containing the transfection mixture was replaced with fresh culture medium. Cells were harvested 16-24 hours after oligonucleotide treatment. […] Prior to quantitative PCR analysis, primer-probe sets specific to the target gene being measured were evaluated for their ability to be “multiplexed” with a GAPDH amplification reaction. After isolation the RNA is subjected to sequential reverse transcriptase (RT) reaction and real-time PCR, both of which are performed in the same well. RT and PCR reagents were obtained from Invitrogen Life Technologies (Carlsbad, Calif.). […] The RT reaction was carried out by incubation for 30 minutes at 48° C. Following a 10 minute incubation at 95° C. to activate the PLATINUM® Taq, 40 cycles of a two-step PCR protocol were carried out: 95° C. for 15 seconds (denaturation) followed by 60° C. for 1.5 minutes (annealing/extension). Gene target quantities obtained by RT, real-time PCR were normalized using either the expression level of GAPDH, a gene whose expression is constant, or by quantifying total RNA using RiboGreenTM (Molecular Probes, Inc. Eugene, Oreg.). GAPDH expression was quantified by RT, real-time PCR, by being run simultaneously with the target, multiplexing, or separately. Total RNA was quantified using RiboGreenTM RNA quantification reagent (Molecular Probes, Inc. Eugene, Oreg.). A series of oligomeric compounds was designed to target different regions of human glucose-6-phosphatase translocase, using published sequences cited in Table 1. All compounds in Table 4 are chimeric oligonucleotides (“gapmers”) 20 nucleotides in length, composed of a central “gap” region consisting of 10 2'-deoxynucleotides, which is flanked on both sides ([NT]) by five-nucleotide “wings”. The wings are composed of 2'-O-(2-methoxyethyl) nucleotides, also known as 2'-MOE nucleotides. The internucleoside (backbone) linkages are phosphorothioate throughout the oligonucleotide. All cytidine residues are 5-methylcytidines. The compounds were analyzed for their effect on gene target mRNA levels by quantitative real-time PCR as described in other examples herein, using the following primer-probe set designed to hybridize to human glucose-6-phosphatase translocase: Forward primer: [NT] (incorporated herein as SEQ ID NO: 24) Reverse primer: [NT] (incorporated herein as SEQ ID NO: 25) And the PCR probe was: […] (incorporated herein as SEQ ID NO: 26), where FAM is the fluorescent dye and TAMRA is the quencher dye. Data are from experiments in which T-24 cells were treated with 100 nM of the antisense oligonucleotides of the present invention using LIPOFECTINTM. A reduction in expression is expressed as percent inhibition in Table 4. If present, “N.D.” indicates “not determined”. The control oligomeric compound used was SEQ ID NO: 11. […]

[2] = test system: human glucose-6-phosphatase translocase mRNA; assay: Antisense inhibition of human glucose-6-phosphatase translocase mRNA in HepG2 cells (Table 11); assay type: cell-based; design: concentration or dose not given beside the values; conditions: LIPOFECTIN, mRNA by real-time PCR
Method in brief: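 HepG2 cells at 65-75% confluency transfected with 2′-MOE gapmer oligonucleotides using LIPOFECTIN (2.5 or 3 μg/mL per 100 nM oligo) for 4-7 h and harvested 16-24 h later. Target mRNA measured by RT real-time PCR and normalized to GAPDH or RiboGreen total RNA.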

[3] = Body weight and tissue weights of normal Sprague-Dawley rats (Table 13); conditions: for Spleen weight / Fat weight / Kidney weight / Liver weight: end of study
Method: For three weeks, male Sprague-Dawley rats were injected twice-weekly with doses of 12.5 mg/kg, 25 mg/kg, or 50 mg/kg of ISIS 145760, ISIS 359543, or ISIS 366228. Each treatment group was comprised of 4 animals. Animals which received twice weekly injections of saline served as controls.
Body weight was monitored throughout the study period. […] Tissue weights were also measured at the end of the study.

[4] = Plasma glucose, cholesterol and triglycerides in normal Sprague-Dawley rats (Table 14); assay type: in vivo, rat; design: plasma GLUCOSE WK 0 / plasma GLUCOSE WK 3: unit not given beside the values
Method: (§1) Each treatment group was comprised of 4 animals.
To further assess the physiological effects resulting from inhibition of target mRNA, the rats were evaluated at the beginning (Wk 0) and at the end (Wk 3) of the treatment period for plasma glucose, plasma cholesterol, and plasma triglyceride levels. Triglycerides and cholesterol were measured by routine clinical analyzer instruments (e.g. Olympus Clinical Analyzer, Melville, N.Y.). Glucose levels were measured using a glucose analyzer, for example a YSI glucose analyzer (YSI Scientific, Yellow Springs, Ohio). Results are presented in Table 14 as the average level of plasma glucose, plasma cholesterol (CHOL), or plasma triglycerides (TRIG) measured per treatment group.

[5] = test system: glucose-6-phosphatase translocase mRNA; assay: Target reduction in liver: rat dose-response study (Table 12); assay type: in vivo; conditions: Sprague-Dawley rats; for % Inhibition, target reduction in liver: three weeks
Method: as §1
At the end of the treatment period, animals were sacrificed and target reduction in liver was measured by real-time PCR as described in other examples herein. Results are shown in Table 12 as the average percent reduction in glucose-6-phosphatase translocase levels as compared to saline treated control.

Sequence: AGGGTGCTCTCCTCCTTCAA (eA*eG*eG*eG*eT*dG*d[5mC]*dT*d[5mC]*dT*d[5mC]*d[5mC]*dT*d[5mC]*d[5mC]*eT*eT*e[5mC]*eA*eA; antisense) [ISIS 194855]
- % Inhib [1]: 57%
- % Inhib [2]: 66%

Sequence: CCACCTATATCCAACTGCGC (e[5mC]*e[5mC]*eA*e[5mC]*e[5mC]*dT*dA*dT*dA*dT*d[5mC]*d[5mC]*dA*dA*d[5mC]*eT*eG*e[5mC]*eG*e[5mC]; antisense) [ISIS 194839]
- % Inhib [1]: 83%
- % Inhib [2]: 75%

Sequence: CCCACTGACAAACTTGCTGA (e[5mC]*e[5mC]*e[5mC]*eA*e[5mC]*dT*dG*dA*d[5mC]*dA*dA*dA*d[5mC]*dT*dT*eG*e[5mC]*eT*eG*eA; antisense) [ISIS 194850]
- % Inhib [1]: 88%
- % Inhib [2]: 38%

Sequence: GGTGCGGATGTTTCGTAGGA (eG*eG*eT*eG*e[5mC]*dG*dG*dA*dT*dG*dT*dT*dT*d[5mC]*dG*eT*eA*eG*eG*eA; antisense) [ISIS 194826]
- % Inhib [1]: 76%

Sequence: GGTTGCCAGGATAGGGCCCA (eG*eG*eT*eT*eG*d[5mC]*d[5mC]*dA*dG*dG*dA*dT*dA*dG*dG*eG*e[5mC]*e[5mC]*e[5mC]*eA; antisense) [ISIS 194846]
- % Inhib [1]: 70%

Sequence: GTCAAGGGTCATTAGTGCCC (eG*eT*e[5mC]*eA*eA*dG*dG*dG*dT*d[5mC]*dA*dT*dT*dA*dG*eT*eG*e[5mC]*e[5mC]*e[5mC]; antisense) [ISIS 194854]
- % Inhib [1]: 80%

Sequence: GTGCTTGGCAATGGTGCTGA (eG*eT*eG*e[5mC]*eT*dT*dG*dG*d[5mC]*dA*dA*dT*dG*dG*dT*eG*e[5mC]*eT*eG*eA; antisense) [ISIS 359543]
- Spleen weight ([3]; 12.5 mg/kg twice weekly, saline 0.7): 0.9 grams
- Fat weight ([3]; 12.5 mg/kg twice weekly, saline 1.8): 1.4 grams
- Kidney weight ([3]; 12.5 mg/kg twice weekly, saline 3): 3 grams
- Liver weight ([3]; 12.5 mg/kg twice weekly, saline 15): 15 grams
- Body weight ([3]; 12.5 mg/kg twice weekly, week 3, saline 290): 285 grams
- Fat weight ([3]; 25 mg/kg twice weekly): 1.3 grams
- Kidney weight ([3]; 25 mg/kg twice weekly): 3 grams
- Liver weight ([3]; 25 mg/kg twice weekly): 16 grams
- Spleen weight ([3]; 25 mg/kg twice weekly): 1.1 grams
- Body weight ([3]; 25 mg/kg twice weekly, week 3): 295 grams
- Fat weight ([3]; 50 mg/kg twice weekly): 1.0 grams
- Kidney weight ([3]; 50 mg/kg twice weekly): 3 grams
- Liver weight ([3]; 50 mg/kg twice weekly): 13 grams
- Spleen weight ([3]; 50 mg/kg twice weekly): 1.4 grams
- Body weight ([3]; 50 mg/kg twice weekly, week 3): 277 grams
- Increases in body weights (in words) ([3]; 12.5 to 50 mg/kg, throughout the study): comparable to the increases in body weight observed for saline-treated control animals
- % Inhib [2]: 74%
- plasma cholesterol (CHOL) WK 3 ([4]; 12.5 mg/kg twice weekly, saline 58): 57
- plasma triglycerides (TRIG) WK 0 ([4]; 12.5 mg/kg twice weekly, saline 69): 69
- plasma cholesterol (CHOL) WK 0 ([4]; 12.5 mg/kg twice weekly, saline 74): 80
- plasma GLUCOSE WK 0 ([4]; 12.5 mg/kg twice weekly, saline 135): 138
- plasma GLUCOSE WK 3 ([4]; 12.5 mg/kg twice weekly, saline 139): 165
- plasma triglycerides (TRIG) WK 3 ([4]; 12.5 mg/kg twice weekly, saline 140): 61
- plasma GLUCOSE WK 0 ([4]; 25 mg/kg twice weekly): 138
- plasma GLUCOSE WK 3 ([4]; 25 mg/kg twice weekly): 154
- plasma cholesterol (CHOL) WK 0 ([4]; 25 mg/kg twice weekly): 82
- plasma cholesterol (CHOL) WK 3 ([4]; 25 mg/kg twice weekly): 57
- plasma triglycerides (TRIG) WK 0 ([4]; 25 mg/kg twice weekly): 62
- plasma triglycerides (TRIG) WK 3 ([4]; 25 mg/kg twice weekly): 37
- plasma GLUCOSE WK 0 ([4]; 50 mg/kg twice weekly): 135
- plasma GLUCOSE WK 3 ([4]; 50 mg/kg twice weekly): 136
- plasma cholesterol (CHOL) WK 0 ([4]; 50 mg/kg twice weekly): 87
- plasma cholesterol (CHOL) WK 3 ([4]; 50 mg/kg twice weekly): 54
- plasma triglycerides (TRIG) WK 0 ([4]; 50 mg/kg twice weekly): 69
- plasma triglycerides (TRIG) WK 3 ([4]; 50 mg/kg twice weekly): 19
- plasma triglycerides (in words) ([4]; 12.5 to 50 mg/kg, three weeks): dose-dependent reductions in plasma triglycerides
- % Inhibition, target reduction in liver ([5]; 12.5 mg/kg twice weekly): 50%
- % Inhibition, target reduction in liver ([5]; 25 mg/kg twice weekly): 62%
- % Inhibition, target reduction in liver ([5]; 50 mg/kg twice weekly): 77%
- target mRNA levels in rat liver (in words) ([5]; 12.5 to 50 mg/kg): effective in reducing target mRNA levels in rat liver in a dose-dependent manner

Sequence: TAACCAGTGGAGAGCACCCA (eT*eA*eA*e[5mC]*e[5mC]*dA*dG*dT*dG*dG*dA*dG*dA*dG*d[5mC]*eA*e[5mC]*e[5mC]*e[5mC]*eA; antisense) [ISIS 194833]
- % Inhib [1]: 60%

Sequence: TAGTGGTACAGTGAGAATGA (eT*eA*eG*eT*eG*dG*dT*dA*d[5mC]*dA*dG*dT*dG*dA*dG*eA*eA*eT*eG*eA; antisense) [ISIS 194848]
- % Inhib [1]: 81%

Sequence: TCCTTGTCCAAAGGGATCTC (eT*e[5mC]*e[5mC]*eT*eT*dG*dT*d[5mC]*d[5mC]*dA*dA*dA*dG*dG*dG*eA*eT*e[5mC]*eT*e[5mC]; antisense) [ISIS 194842]
- % Inhib [1]: 57%

Sequence: TCTCTTCCACCAATGATGGC (eT*e[5mC]*eT*e[5mC]*eT*dT*d[5mC]*d[5mC]*dA*d[5mC]*d[5mC]*dA*dA*dT*dG*eA*eT*eG*eG*e[5mC]; antisense) [ISIS 194841]
- % Inhib [1]: 41%

Sequence: TGACTGCAGAAGTTTCCTGT (eT*eG*eA*e[5mC]*eT*dG*d[5mC]*dA*dG*dA*dA*dG*dT*dT*dT*e[5mC]*e[5mC]*eT*eG*eT; antisense) [ISIS 194838]
- % Inhib [1]: 91%
- % Inhib [2]: 42%

Sequence: TGACTGTCCTTTCTCCTGGA (eT*eG*eA*e[5mC]*eT*dG*dT*d[5mC]*d[5mC]*dT*dT*dT*d[5mC]*dT*d[5mC]*e[5mC]*eT*eG*eG*eA; antisense) [ISIS 194834]
- % Inhib [1]: 71%

Sequence: TGCCTACAAGGCCCCCAACT (eT*eG*e[5mC]*e[5mC]*eT*dA*d[5mC]*dA*dA*dG*dG*d[5mC]*d[5mC]*d[5mC]*d[5mC]*e[5mC]*eA*eA*e[5mC]*eT; antisense) [ISIS 194849]
- % Inhib [1]: 65%

Sequence: TGCGCCTAGTGGTACAGTGA (eT*eG*e[5mC]*eG*e[5mC]*d[5mC]*dT*dA*dG*dT*dG*dG*dT*dA*d[5mC]*eA*eG*eT*eG*eA; antisense) [ISIS 194829]
- % Inhib [1]: 82%

Sequence: TGTCCTTTCTCCTGGATAAG (eT*eG*eT*e[5mC]*e[5mC]*dT*dT*dT*d[5mC]*dT*d[5mC]*d[5mC]*dT*dG*dG*eA*eT*eA*eA*eG; antisense) [ISIS 194852]
- % Inhib [1]: 44%

Sequence: TGTTTCGTAGGAGGAAGAAG (eT*eG*eT*eT*eT*d[5mC]*dG*dT*dA*dG*dG*dA*dG*dG*dA*eA*eG*eA*eA*eG; antisense) [ISIS 194857]
- % Inhib [1]: 44%

Sequence: TTCCTGCTTGCCGCTCTCAC (eT*eT*e[5mC]*e[5mC]*eT*dG*d[5mC]*dT*dT*dG*d[5mC]*d[5mC]*dG*d[5mC]*dT*e[5mC]*eT*e[5mC]*eA*e[5mC]; antisense) [ISIS 194845]
- % Inhib [1]: 50%
